In ChEMBL document CHEMBL5550129, “Optimization of benzenesulfonyl derivatives as anti-Trypanosomatidae agents: Structural design, synthesis, and pharmacological assessment against Trypanosoma cruzi and Leishmania infantum” (Bioorg Med Chem, 2024):

Experiments:
Leishmania infantum [1] = assay: Antileishmanial activity against Leishmania infantum MHOM/BR/1974/PP75 expressing red fluorescence protein infected in THP-1 cells pre-infected for 4 hrs followed by compound addition and measured after 72 hrs by microplate reader assay; type: functional, organism-based; settings: MHOM/BR/1974/PP75, THP-1
Trypanosoma cruzi [2] = assay: Antitrypanosomal activity against Trypanosoma cruzi Tulahuen expressing Escherichia coli beta-galactosidase infected in L929 cells pretreated with parasite for 50 hrs followed by compound addition and measured after 96 hrs; type: functional, organism-based
[3] = Selectivity index, ratio of CC50 for human THP-1 cells to IC50 for Leishmania braziliensis; type: toxicity; settings: read-out: Ratio CC50/IC50
Leishmania braziliensis [4] = assay: Antileishmanial activity against Leishmania braziliensis; type: functional, organism-based
Leishmania infantum [5] = assay: Antileishmanial activity against Leishmania infantum; type: functional, organism-based
[6] = Selectivity index, ratio of CC50 for mouse L929 cells to IC50 for Trypanosoma cruzi; type: toxicity; settings: read-out: Ratio CC50/IC50
[7] = Cytotoxicity against mouse L929 cells; type: toxicity, cell-based
[8] = Selectivity index, ratio of CC50 for human THP-1 cells to IC50 for Leishmania infantum; type: toxicity; settings: read-out: Ratio CC50/IC50
Trypanosoma cruzi [9] = assay: Antitrypanosomal activity against Trypanosoma cruzi; type: functional, organism-based
[10] = Cytotoxicity against human THP-1 cells; type: toxicity, cell-based
[11] = Cytotoxicity against human THP-1 cells incubated for 72 hrs by Alamar blue assay; type: toxicity, cell-based
[12] = Selectivity index, ratio of CC50 for human THP-1 cells to IC50 for Leishmania infantum MHOM/BR/1974/PP75 expressing red fluorescence protein infected in THP-1 cells; type: toxicity, cell-based; settings: read-out: Ratio CC50/IC50
[13] = Cytotoxicity against mouse L929 cells incubated for 96 hrs by Alamar blue assay; type: toxicity, cell-based
[14] = Selectivity index, ratio of CC50 for mouse L929 cells to IC50 for Trypanosoma cruzi Tulahuen expressing Escherichia coli beta-galactosidase infected in L929 cells; type: toxicity; settings: read-out: Ratio CC50/IC50
Leishmania braziliensis [15] = assay: Antileishmanial activity against Leishmania braziliensis MHOM/BR/75/M2904 expressing red fluorescence protein infected in THP-1 cells pre-infected for 4 hrs followed by compound addition and measured after 72 hrs by microplate reader assay; type: functional, organism-based; settings: MHOM/BR/75/M2904, THP-1
[16] = Selectivity index, ratio of CC50 for human THP-1 cells to IC50 for Leishmania braziliensis MHOM/BR/75/M2904 expressing red fluorescence protein infected in THP-1 cells; type: toxicity, cell-based; settings: read-out: Ratio CC50/IC50

Row | Structure (SMILES) | IC50 (Leishmania infantum [1]) | IC50 (Trypanosoma cruzi [2]) | CC50 at 72 h [11] | selectivity ratio [12] | CC50 at 96 h [13] | selectivity ratio [14] | IC50 (Leishmania braziliensis [15]) | other results
1 | O=S(=O)(c1ccc(F)cc1)N1CCN(c2ccccc2)CC1 | > 100 µM | > 200 µM |  |  |  |  |  | 
2 | O=S(=O)(c1ccc(Cl)cc1)N1CCNCC1 |  |  |  |  |  |  |  | selectivity ratio [3]: > 250; IC50 (Leishmania braziliensis [4]): 4.5 µM; IC50 (Leishmania infantum [5]): 5 µM; selectivity ratio [6]: 61; CC50 [7]: 227 µM; selectivity ratio [8]: > 250; IC50 (Trypanosoma cruzi [9]): 3.7 µM; CC50 [10]: 1250 µM
3 | Nc1ccc(C(=O)N2CCN(S(=O)(=O)c3ccc(Cl)cc3)CC2)cc1 | > 100 µM | > 200 µM | > 1000 µM |  |  |  |  | 
4 | CN(C)CCOc1ccc(N2CCN(S(=O)(=O)c3ccccc3)CC2)cc1 | > 100 µM | 28 µM | 650 µM | < 7 | 91.2 µM | 3 |  | 
5 | CN(C)CCNc1ccc(C(=O)N2CCN(S(=O)(=O)c3ccc(Cl)cc3)CC2)cn1 | 35.7 µM | 65.9 µM | 388 µM | 11 | 395 µM | 6 |  | 
6 | N#Cc1ccc(C(=O)N2CCN(S(=O)(=O)c3ccc(Cl)cc3)CC2)cc1 | 36.4 µM | > 200 µM | > 1000 µM |  |  |  |  | 
7 | COc1ccc(OC)c(S(=O)(=O)N2CCN(c3ccc(OCCN(C)C)cc3)CC2)c1 | 29.6 µM | 13.4 µM | 141 µM | 5 | 274 µM | 20 | 29.6 µM | selectivity ratio [16]: 5
8 | CN(C)CCOc1ccc(N2CCN(S(=O)(=O)c3ccccc3Br)CC2)cc1 | 43.3 µM | 3.7 µM | 161 µM | 4 | 10 µM | 3 |  | 
9 | O=C(c1ccc(-n2cnnn2)cc1)N1CCN(S(=O)(=O)c2ccc(Cl)cc2)CC1 | 35.9 µM | 145 µM | > 1000 µM |  |  |  |  | 
10 | CN(C)CCOc1cccc(C(=O)N2CCN(S(=O)(=O)c3ccc(Cl)cc3)CC2)c1 | 0.6 µM | 137 µM |  |  |  |  | 4.4 µM | 
11 | CN(C)CCOc1ccc(N2CCN(C(=O)c3ccc(Cl)cc3)CC2)cc1 | 37.5 µM | 4.3 µM | > 1000 µM | > 27 | 339 µM | 79 |  | 
12 | COc1ccc(S(=O)(=O)N2CCN(c3ccc(OCCN(C)C)cc3)CC2)cc1 | 25.1 µM | 7.1 µM | 388 µM | 16 | 354 µM | 50 | 70.5 µM | selectivity ratio [16]: 6
13 | CN(C)CCOc1ccc(N2CCN(S(=O)(=O)c3ccc([N+](=O)[O-])cc3)CC2)cc1 | 62.9 µM | 1.7 µM | 343 µM | 6 | 302 µM | 178 |  | 
14 | Cc1ccc(S(=O)(=O)N2CCN(c3ccc(OCCN(C)C)cc3)CC2)cc1 | > 100 µM | 2.2 µM | 298 µM | < 3 | 289 µM | 136 |  | 
15 | N#CCOc1ccc(C(=O)N2CCN(S(=O)(=O)c3ccc(Cl)cc3)CC2)cc1 | 0.8 µM | 108 µM | 371 µM | 453 |  |  | 0.7 µM | selectivity ratio [16]: 516
16 | NCCOc1ccc(C(=O)N2CCN(S(=O)(=O)c3ccc(Cl)cc3)CC2)cc1 | > 100 µM | > 200 µM | 911 µM |  |  |  |  | 
17 | CN(C)CCOc1cccc(N2CCN(S(=O)(=O)c3ccc(Cl)cc3)CC2)c1 | 4.6 µM | 137 µM | 170 µM | 37 |  |  | 41.7 µM | selectivity ratio [16]: 4
18 | O=C(c1ccc(N2CCNCC2)nc1)N1CCN(S(=O)(=O)c2ccc(Cl)cc2)CC1 | > 100 µM | 9.8 µM | 253 µM | < 3 | 18 µM | 2 |  | 
19 | N#CCOc1ccc(N2CCN(S(=O)(=O)c3ccc(Cl)cc3)CC2)cc1 | 23.3 µM | 7.2 µM | 46.6 µM | 2 |  | 71 | 40.3 µM | selectivity ratio [16]: 1
20 | O=C(c1ccc([N+](=O)[O-])cc1)N1CCN(S(=O)(=O)c2ccc(Cl)cc2)CC1 | 48.8 µM | > 200 µM | > 1000 µM | > 20 |  |  |  | 
21 | CN(C)CCOc1ccc(N2CCN(S(=O)(=O)c3ccc(N)cc3)CC2)cc1 | 55.2 µM | 168 µM | > 1000 µM | > 11 |  |  |  | 
22 | CN(C)CCOc1ccc(C(=O)N2CCN(S(=O)(=O)c3ccc(Cl)cc3)CC2)cc1 | 0.9 µM | 13.8 µM | > 1000 µM | > 2460 | 345 µM | 25 | 1.4 µM | selectivity ratio [16]: > 714
23 | CN(C)CCOc1ccc(N2CCN(S(=O)(=O)c3ccc(Br)cc3)CC2)cc1 | > 100 µM | 8.3 µM | 283 µM | < 3 | > 427 µM | > 57 |  | 
24 | CN(C)CCOc1ccc(N2CCN(S(=O)(=O)c3ccc(F)cc3)CC2)cc1 | 6.1 µM | 6.4 µM | > 1000 µM | > 405 | 374 µM | 58 | 21 µM | selectivity ratio [16]: 48
25 | CC(=O)Nc1ccc(S(=O)(=O)N2CCN(c3ccc(OCCN(C)C)cc3)CC2)cc1 | > 100 µM | 187 µM | > 1000 µM |  |  |  |  | 
26 | CN(C)CCOc1ccccc1C(=O)N1CCN(S(=O)(=O)c2ccc(Cl)cc2)CC1 | 10.3 µM | > 200 µM | > 500 µM | > 49 |  |  | 7.2 µM | selectivity ratio [16]: > 69.5
27 | COc1ccc(Cl)cc1S(=O)(=O)N1CCN(c2ccc(OCCN(C)C)cc2)CC1 | > 100 µM | 12.6 µM | 73.9 µM | < 1 | 148 µM | 12 |  | 
